Assay results taken from patent publication US20140235533A1, “DIHYDROFURAN DERIVATIVES AS INSECTICIDAL COMPOUNDS” (SYNGENTA PARTICIPATIONS AG, priority 2011, published 2014).

Columns and labels:
Format in all cases: in vivo
Spodoptera littoralis = Spodoptera littoralis (Egyptian cotton leafworm) cotton leaf disc spray test; conditions: foliar, 72 h, 200 ppm spray on cotton leaf discs, 5 L1 larvae, mortality, feeding behavior, growth regulation 3 days after treatment
From the text: Spodoptera littoralis (Egyptian Cotton Leafworm) Cotton leaf discs were placed on agar in a 24-well microtiter plate and sprayed with test solutions at an application rate of 200 ppm. After drying, the leaf discs were infested with 5 L1 larvae. The samples were checked for mortality, feeding behavior, and growth regulation 3 days after treatment (DAT).

Heliothis virescens = Heliothis virescens (tobacco budworm) egg test on artificial diet; conditions: 96 h, 200 ppm (concentration in well 18 ppm), eggs 0-24 h old on artificial diet, egg mortality, larval mortality, growth regulation after 4 days
Experimental: Heliothis virescens (Tobacco Budworm):
Eggs (0-24 h old) were placed in 24-well microtiter plate on artificial diet and treated with test solutions at an application rate of 200 ppm (concentration in well 18 ppm) by pipetting. After an incubation period of 4 days, samples were checked for egg mortality, larval mortality, and growth regulation. The following compound gave at least 80% control of Heliothis virescens: A1, A2, A03, A05, A06, A07, A08, A09, A10, A11, A12, A13, A14, A15, A16, A17, A18, A19, A20, A21, A22, A25, A26, A27, A31, A32, A34, A37, A39, A40, A42, A44, A45, A46, A47, A48, A49, A50, A51, A52, A53, B1**.

Plutella xylostella = Plutella xylostella (diamond back moth) artificial diet MTP test; conditions: 144 h, 200 ppm (concentration in well 18 ppm), L2 larvae, larval mortality and growth regulation after 6 days
Experimental: (§1) Plutella xylostella (Diamond Back Moth): 24-well microtiter plate (MTP) with artificial diet was treated with test solutions at an application rate of 200 ppm (concentration in well 18 ppm) by pipetting. After drying, the MTPs were infested with L2 larvae (7-12 per well). After an incubation period of 6 days, samples were checked for larval mortality and growth regulation.

Diabrotica balteata = Diabrotica balteata (corn root worm) artificial diet MTP test; conditions: 120 h, 200 ppm (concentration in well 18 ppm), L2 larvae, larval mortality and growth regulation after 5 days
Experimental: as §1, with “Diabrotica balteata (Corn Root Worm): A” for “Plutella xylostella (Diamond Back Moth):”, “(6-10” for “(7-12”, “5” for “6”

Tetranychus urticae = Tetranychus urticae (two-spotted spider mite) bean leaf disc spray test; conditions: foliar, 192 h, 200 ppm spray on bean leaf discs, mite populations of mixed ages, egg, larval and adult mortality 8 days later
From the text: Tetranychus urticae (Two-Spotted Spider Mite): Bean leaf discs on agar in 24-well microtiter plates were sprayed with test solutions at an application rate of 200 ppm. After drying, the leaf discs are infested with mite populations of mixed ages. 8 days later, discs are checked for egg mortality, larval mortality, and adult mortality.

Measured: pest or weed control at 200 ppm

CCC(CC)C(=O)NCc1ccc(C2=COC(c3cc(Cl)cc(Cl)c3)(C(F)(F)F)C2)cc1Cl (stereo not drawn) [Compound A03, N-[[2-chloro-4-[2-(3,5-dichlorophenyl)-2-(trifluoromethyl)-3H-furan-4-yl]phenyl]methyl]-2-ethyl-butanamide]
≥ 80%: all assays above

CC(C)C(=O)NCc1ccc(C2=COC(c3cc(Cl)cc(Cl)c3)(C(F)(F)F)C2)cc1Cl (stereo not drawn) [Compound A46, N-[[2-chloro-4-[2-(3,5-dichlorophenyl)-2-(trifluoromethyl)-3H-furan-4-yl]phenyl]methyl]-2-methyl-propanamide]
≥ 80%: all assays above

CS(=O)(=O)CC(=O)NCc1ccc(C2=COC(c3cc(Cl)cc(Cl)c3)(C(F)(F)F)C2)cc1Cl (stereo not drawn) [Compound A51, N-[[2-chloro-4-[2-(3,5-dichlorophenyl)-2-(trifluoromethyl)-3H-furan-4-yl]phenyl]methyl]-2-methylsulfonyl-acetamide]
≥ 80%: all assays above

O=C(CC(F)(F)F)NCc1ccc(C2=COC(c3cc(Cl)cc(Cl)c3)(C(F)(F)F)C2)cc1Cl (stereo not drawn) [Compound A48, N-[[2-chloro-4-[2-(3,5-dichlorophenyl)-2-(trifluoromethyl)-3H-furan-4-yl]phenyl]methyl]-3,3,3-trifluoro-propanamide]
≥ 80%: all assays above

O=C(NCc1ccc(C2=COC(c3cc(Cl)cc(Cl)c3)(C(F)(F)F)C2)cc1Cl)C1CCCO1 (stereo not drawn) [Compound A07, N-[[2-chloro-4-[2-(3,5-dichlorophenyl)-2-(trifluoromethyl)-3H-furan-4-yl]phenyl]methyl]tetrahydrofuran-2-carboxamide]
≥ 80%: all assays above

O=C(NCc1ccc(C2=COC(c3cc(Cl)cc(Cl)c3)(C(F)(F)F)C2)cc1Cl)C1CC1 (stereo not drawn) [Compound A2, N-[[2-chloro-4-[2-(3,5-dichlorophenyl)-2-(trifluoromethyl)-3H-furan-4-yl]phenyl]methyl]cyclopropanecarboxamide]
≥ 80%: all assays above
